According to PubChem BioAssay AID220 (DTP/NCI, 2004):
Several values for one entry are separate records, joined by “and”; a condition that tells them apart may be missing. Equal entries are not always repeated. Inconclusive results are not listed.

Tested on: CD8F1 mice, subcutaneous mammary adenocarcinoma, T/C%
Test: NCI In Vivo Anticancer Drug Screen. Data for tumor model Mammary Adenocarcinoma CD8F1 (subcutaneous) in CD8F1
Conditions: higher = larger tumour
Procedure, shortened: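 Compound-treated versus vehicle-treated mice with transplantable tumors; survival or tumor size compared as T/C.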

[1] = endpoint: median tumor weight (est.), dose: 25.0 mg/kg/injection, schedule: Q07DX005 (ip), vehicle: saline with Tween-80
[2] = endpoint: median tumor weight (est.), dose: 200.0 mg/kg/injection, schedule: Q07DX005 (ip), vehicle: saline with Tween-80
[3] = endpoint: median tumor weight change, dose: 25.0 mg/kg/injection, schedule: Q01DX001 (ip), vehicle: saline
[4] = endpoint: median tumor weight change, dose: 50.0 mg/kg/injection, schedule: Q01DX001 (ip), vehicle: saline
[5] = endpoint: median tumor weight change, dose: 100.0 mg/kg/injection, schedule: Q01DX001 (ip), vehicle: saline
[6] = endpoint: median tumor weight (est.), dose: 12.5 mg/kg/injection, schedule: Q07DX005 (ip), vehicle: suspension in saline
[7] = endpoint: median tumor weight (est.), dose: 25.0 mg/kg/injection, schedule: Q07DX005 (ip), vehicle: suspension in saline
[8] = endpoint: median tumor weight change, dose: 31.25 mg/kg/injection, schedule: Q01DX001 (ip), vehicle: saline with Tween-80

CCCCCCCCCCC(OC(C)=O)C1CCC(C2CCC(C(O)CCCCCCCCCCCCC3C=C(C)OC3=O)O2)O1 (stereo unspecified)
T/C (endpoint: median tumor weight change, dose: 1.25 mg/kg/injection, schedule: Q01DX001 (ip), vehicle: water): 111 % of control | T/C (endpoint: median tumor weight change, dose: 10.0 mg/kg/injection, schedule: Q01DX001 (ip), vehicle: other): 76 % of control | T/C (endpoint: median tumor weight change, dose: 10.0 mg/kg/injection, schedule: Q01DX001 (ip), vehicle: water): 164 % of control | T/C (endpoint: median tumor weight change, dose: 20.0 mg/kg/injection, schedule: Q01DX001 (ip), vehicle: other): 41 % of control | T/C (endpoint: median tumor weight change, dose: 40.0 mg/kg/injection, schedule: Q01DX001 (ip), vehicle: other): 38 % of control | T/C (endpoint: median tumor weight change, dose: 80.0 mg/kg/injection, schedule: Q01DX001 (ip), vehicle: other): 38 % of control

CN(C)c1nc(N(C)C)nc(N(C)C)n1
T/C (endpoint: mean tumor weight, dose: 75.0 mg/kg/injection, schedule: Q01DX009 (ip), vehicle: saline): 64 % of control | T/C (endpoint: mean tumor weight, dose: 150.0 mg/kg/injection, schedule: Q01DX009 (ip), vehicle: saline): 94 % of control | T/C (endpoint: mean tumor weight, dose: 250.0 mg/kg/injection, schedule: Q07DX006 (ip), vehicle: saline): 108 % of control | T/C (endpoint: mean tumor weight, dose: 300.0 mg/kg/injection, schedule: Q01DX009 (ip), vehicle: saline): 8 % of control | T/C (endpoint: mean tumor weight, dose: 300.0 mg/kg/injection, schedule: Q07DX006 (ip), vehicle: saline): 113 % of control | T/C (endpoint: median tumor weight (est.), dose: 12.5 mg/kg/injection, schedule: Q07DX006 (ip), vehicle: saline with Tween-80): 100 % of control | T/C (endpoint: median tumor weight (est.), dose: 16.0 mg/kg/injection, schedule: Q07DX005 (ip), vehicle: saline with Tween-80): 171 % of control | T/C [1]: 80 % of control | T/C (endpoint: median tumor weight (est.), dose: 25.0 mg/kg/injection, schedule: Q07DX006 (ip), vehicle: saline with Tween-80): 54 % of control | T/C (endpoint: median tumor weight (est.), dose: 32.0 mg/kg/injection, schedule: Q07DX005 (ip), vehicle: acid diluted with saline): 31 % of control | T/C (endpoint: median tumor weight (est.), dose: 32.0 mg/kg/injection, schedule: Q07DX005 (ip), vehicle: saline with Tween-80): 179 % of control | T/C (endpoint: median tumor weight (est.), dose: 50.0 mg/kg/injection, schedule: Q07DX005 (ip), vehicle: saline with Tween-80): 73 % of control | T/C (endpoint: median tumor weight (est.), dose: 50.0 mg/kg/injection, schedule: Q07DX006 (ip), vehicle: saline with Tween-80): 50 % of control | T/C (endpoint: median tumor weight (est.), dose: 64.0 mg/kg/injection, schedule: Q07DX005 (ip), vehicle: acid diluted with saline): 39 % of control | T/C (endpoint: median tumor weight (est.), dose: 64.0 mg/kg/injection, schedule: Q07DX005 (ip), vehicle: saline with Tween-80): 212 % of control and 76 % of control | T/C (endpoint: median tumor weight (est.), dose: 100.0 mg/kg/injection, schedule: Q07DX005 (ip), vehicle: saline with Tween-80): 62 % of control | T/C (endpoint: median tumor weight (est.), dose: 100.0 mg/kg/injection, schedule: Q07DX006 (ip), vehicle: saline with Tween-80): 78 % of control | T/C (endpoint: median tumor weight (est.), dose: 128.0 mg/kg/injection, schedule: Q07DX005 (ip), vehicle: acid diluted with saline): 53 % of control | T/C [2]: 44 % of control | T/C (endpoint: median tumor weight (est.), dose: 200.0 mg/kg/injection, schedule: Q07DX006 (ip), vehicle: saline with Tween-80): 5 % of control | T/C (endpoint: median tumor weight (est.), dose: 256.0 mg/kg/injection, schedule: Q07DX005 (ip), vehicle: acid diluted with saline): 29 % of control | T/C (endpoint: median tumor weight change, dose: 100.0 mg/kg/injection, schedule: Q01DX001 (ip), vehicle: acid diluted with saline): 103 % of control and 104 % of control | T/C (endpoint: median tumor weight change, dose: 200.0 mg/kg/injection, schedule: Q01DX001 (ip), vehicle: acid diluted with saline): 61 % of control | T/C (endpoint: median tumor weight change, dose: 800.0 mg/kg/injection, schedule: Q01DX001 (ip), vehicle: acid diluted with saline): 37 % of control and 51 % of control

O=C(CC(=O)C(F)(F)F)c1csc2ccccc12
T/C (endpoint: median tumor weight change, dose: 31.25 mg/kg/injection, schedule: Q01DX001 (ip), vehicle: Klucel (hydroxypropylcellulose) (HPC)): 35 % of control | T/C (endpoint: median tumor weight change, dose: 62.5 mg/kg/injection, schedule: Q01DX001 (ip), vehicle: Klucel (hydroxypropylcellulose) (HPC)): 39 % of control | T/C (endpoint: median tumor weight change, dose: 125.0 mg/kg/injection, schedule: Q01DX001 (ip), vehicle: Klucel (hydroxypropylcellulose) (HPC)): 65 % of control

C(=N/NC1=NCCN1)/c1c2ccccc2c(/C=N\NC2=NCCN2)c2ccccc12
T/C [3]: 78 % of control | T/C [4]: 101 % of control | T/C [5]: 37 % of control

N=C(N)Sc1ccccn1
T/C [6]: 156 % of control | T/C [7]: 113 % of control | T/C (endpoint: median tumor weight (est.), dose: 50.0 mg/kg/injection, schedule: Q07DX005 (ip), vehicle: suspension in saline): 103 % of control | T/C (endpoint: median tumor weight (est.), dose: 400.0 mg/kg/injection, schedule: Q07DX005 (ip), vehicle: suspension in saline): 121 % of control

CS(=O)(=O)OCCN(CCOS(C)(=O)=O)c1ccc(C=O)cc1
T/C (endpoint: median tumor weight (est.), dose: 6.25 mg/kg/injection, schedule: Q07DX005 (ip), vehicle: saline with Tween-80): 62 % of control | T/C (endpoint: median tumor weight (est.), dose: 12.5 mg/kg/injection, schedule: Q07DX005 (ip), vehicle: saline with Tween-80): 62 % of control and 83 % of control | T/C [1]: 35 % of control | T/C [2]: 85 % of control

Cc1cc2c(C(C)C)c(O)c(O)c(C=O)c2c(O)c1-c1c(C)cc2c(C(C)C)c(O)c(O)c(C=O)c2c1O
T/C [8]: 65 % of control

Nc1ccc2nc3ccc(N)cc3[n+](-c3ccccc3)c2c1
T/C (endpoint: median tumor weight (est.), dose: 6.25 mg/kg/injection, schedule: Q07DX005 (ip), vehicle: Klucel (hydroxypropylcellulose) (HPC)): 90 % of control | T/C (endpoint: median tumor weight (est.), dose: 6.25 mg/kg/injection, schedule: Q07DX005 (ip), vehicle: suspension in saline): 72 % of control | T/C (endpoint: median tumor weight (est.), dose: 12.5 mg/kg/injection, schedule: Q07DX005 (ip), vehicle: Klucel (hydroxypropylcellulose) (HPC)): 35 % of control | T/C [6]: 64 % of control | T/C (endpoint: median tumor weight (est.), dose: 25.0 mg/kg/injection, schedule: Q07DX005 (ip), vehicle: Klucel (hydroxypropylcellulose) (HPC)): 80 % of control | T/C [7]: 95 % of control | T/C (endpoint: median tumor weight (est.), dose: 50.0 mg/kg/injection, schedule: Q07DX005 (ip), vehicle: Klucel (hydroxypropylcellulose) (HPC)): 45 % of control

C=C1C(C)C2C(Cc3ccccc3)NC(=O)C23C(OC(C)=O)/C=C/C(C)(O)CC(C)C/C=C/C3C1O (stereo unspecified)
T/C (endpoint: median tumor weight change, dose: 7.5 mg/kg/injection, schedule: Q01DX001 (ip), vehicle: Klucel (hydroxypropylcellulose) (HPC)): 61 % of control and 66 % of control

Cc1ccc(NCCN(C)C)c2c(=O)c3cc(O)ccc3sc12
T/C (endpoint: median tumor weight change, dose: 250.0 mg/kg/injection, schedule: Q01DX001 (ip), vehicle: Klucel (hydroxypropylcellulose) (HPC)): -8 % of control and 15 % of control | T/C (endpoint: median tumor weight change, dose: 500.0 mg/kg/injection, schedule: Q01DX001 (ip), vehicle: Klucel (hydroxypropylcellulose) (HPC)): -6 % of control

Brc1c(NC2=NCCN2)ccc2nccnc12
T/C (endpoint: median tumor weight change, dose: 15.6 mg/kg/injection, schedule: Q01DX001 (ip), vehicle: saline): 52 % of control | T/C (endpoint: median tumor weight change, dose: 31.25 mg/kg/injection, schedule: Q01DX001 (ip), vehicle: saline): 77 % of control | T/C (endpoint: median tumor weight change, dose: 62.5 mg/kg/injection, schedule: Q01DX001 (ip), vehicle: saline): 81 % of control | T/C (endpoint: median tumor weight change, dose: 125.0 mg/kg/injection, schedule: Q01DX001 (ip), vehicle: saline): 92 % of control | T/C (endpoint: median tumor weight change, dose: 250.0 mg/kg/injection, schedule: Q01DX001 (ip), vehicle: saline): 53 % of control

O=C1c2cccc3cc([N+](=O)[O-])cc(c23)C(=O)N1CCN1CCCC1
T/C (endpoint: median tumor weight change, dose: 7.0 mg/kg/injection, schedule: Q01DX001 (ip), vehicle: saline with Tween-80): 117 % of control | T/C (endpoint: median tumor weight change, dose: 14.06 mg/kg/injection, schedule: Q01DX001 (ip), vehicle: saline with Tween-80): 69 % of control | T/C (endpoint: median tumor weight change, dose: 28.12 mg/kg/injection, schedule: Q01DX001 (ip), vehicle: saline with Tween-80): 118 % of control | T/C [8]: 63 % of control | T/C (endpoint: median tumor weight change, dose: 56.25 mg/kg/injection, schedule: Q01DX001 (ip), vehicle: saline with Tween-80): 81 % of control | T/C (endpoint: median tumor weight change, dose: 62.5 mg/kg/injection, schedule: Q01DX001 (ip), vehicle: saline with Tween-80): 20 % of control | T/C (endpoint: median tumor weight change, dose: 112.5 mg/kg/injection, schedule: Q01DX001 (ip), vehicle: saline with Tween-80): 18 % of control

CC1(C)COCN1COCCOCN1COCC1(C)C
T/C [3]: 100 % of control | T/C [4]: 109 % of control | T/C [5]: 95 % of control

CC(=O)OC1COC(NC(=O)N(CCCl)N=O)C(OC(C)=O)C1OC(C)=O (stereo unspecified)
T/C (endpoint: median tumor weight (est.), dose: 1.5 mg/kg/injection, schedule: Q07DX004 (ip), vehicle: saline with Tween-80): 32 % of control | T/C (endpoint: median tumor weight (est.), dose: 3.0 mg/kg/injection, schedule: Q07DX004 (ip), vehicle: saline with Tween-80): 103 % of control | T/C (endpoint: median tumor weight (est.), dose: 6.0 mg/kg/injection, schedule: Q07DX004 (ip), vehicle: saline with Tween-80): 35 % of control | T/C (endpoint: median tumor weight (est.), dose: 6.0 mg/kg/injection, schedule: Q07DX005 (ip), vehicle: saline with Tween-80): 103 % of control | T/C (endpoint: median tumor weight (est.), dose: 12.0 mg/kg/injection, schedule: Q07DX005 (ip), vehicle: saline with Tween-80): 68 % of control | T/C (endpoint: median tumor weight (est.), dose: 24.0 mg/kg/injection, schedule: Q07DX005 (ip), vehicle: saline with Tween-80): 46 % of control
